Measured values reported in paper PMC6510822, “Identification of anticancer OATP2B1 substrates by an in vitro triple-fluorescence-based cytotoxicity screen” (Archives of Toxicology, 2019).
Like-named read-outs stand apart in the source and are kept apart here. Marks after values point to notes of the source that are not given here.

Tests used:
[1] = tested on: Mes-Sa-B1 cells (Pgp overexpressing); assay: Fluorescence-based cytotoxicity assay, Mes-Sa-B1 mOr
Protocol: (§1) After the transduction, cell lines were tested by flow cytometry and were sorted based on transporter expression/function, and in the case of the OATP2B1-expressing cell line, on CD4 protein expression. Parental, SLCO2B1, ABCG2 and ABCB1 overexpressing cell lines were transduced with the fluorescent protein expressing lentiviral supernatants produced with pRRL-EF1-mCherry, -mOrange or -eGFP expression plasmid in a second round of transduction. Mes-Sa/Dx5-eGFP cells were repeatedly cultured in 500 nM doxorubicin to ensure homogenous expression of Pgp. […] Functional expression of ABCB1 and ABCG2 was regularly checked with cytotoxicity assays using mitoxantrone in the absence or presence of tariquidar.
(§2) All experiments were performed using a robotic pipetting workstation (Hamilton Robotics STAR Let). Cells were seeded at a final cell density of 1875 cells per well in 384-well plates in the triple co-culture (625 cells from each lines) and at 2500 cells per well in the A431 control and A431-2B1 co-culture (1250 cells from both) systems. Co-cultured cells were incubated for 24 h at 37 °C and 5% CO2 under humidified atmosphere prior to the addition of drugs. […] Data were exported to a custom-made program for determining growth inhibition curves for each cell line.
(§3) In the primary screening, IC50 was estimated by the intercept of the linear regression fitted on nearest values. In the confirmatory screening, IC50 values were obtained by sigmoidal curve fitting using the GraphPad Prism software. […] The Resistance Ratio (RR) was calculated by dividing the IC50 values measured against the multidrug resistant, transporter-expressing derivative by the cytotoxicity measured in the parental cell line; the Selectivity Ratio (SR) is the inverse of RR.

Mes-Sa/Dx5 cells = assay: Fluorescence-based cytotoxicity assay, Mes-Sa/Dx5 eGFP; conditions: for RR (Dx5): resistance ratio = IC50 Mes-Sa/Dx5 / IC50 parental Mes-Sa
Protocol: as §1, §2, §3

[2] = tested on: A431-B1 cells (ABCB1/P-glycoprotein expressing); assay: Fluorescence-based cytotoxicity assay, ABCB1-expressing A431-B1 mCh
Protocol: All cell lines were cultured at 37 °C, 5% CO2, in Dulbecco’s Modified Eagle’s Medium (DMEM, SigmaAldrich, 52100047), supplemented with 10% FBS, 2 mM L-glutamine and 100 units/mL penicillin and 100 µg/mL streptomycin (ThermoFisher).
as §2
In the primary screening, IC50 was estimated by the intercept of the linear regression fitted on nearest values. In the confirmatory screening, IC50 values were obtained by sigmoidal curve fitting using the GraphPad Prism software. […] The Resistance Ratio (RR) was calculated by dividing the IC50 values measured against the multidrug resistant, transporter-expressing derivative by the cytotoxicity measured in the parental cell line; the Selectivity Ratio (SR) is the inverse of RR. Differences were considered to be biologically relevant at RR > 3 or SR > 3.

[3] = tested on: A431-G2 cells (ABCG2 expressing); assay: Fluorescence-based cytotoxicity assay, ABCG2-expressing A431-G2 mOr
Protocol: as §1, §2, §3

A431 cells = assay: Fluorescence-based cytotoxicity assay, parental A431 eGFP; conditions: Homo sapiens
Protocol: as §1, §2, §3

[4] = tested on: A431-2B1 cells (OATP2B1 expressing); assay: Fluorescence-based cytotoxicity assay, OATP2B1-expressing A431-2B1 mCh
Protocol: as §1, §2, §3

OATP2B1 [5] = assay: as above; conditions: human
Protocol: as §1, §2, §3

OATP2B1 [6] = target: T1, OATP2B1 (Homo sapiens, UniProt O94956); assay: Inhibition of OATP2B1-mediated Cascade Blue uptake (microplate-based uptake assay, A431-2B1 cells)
T1 sequence (O94956 1-709): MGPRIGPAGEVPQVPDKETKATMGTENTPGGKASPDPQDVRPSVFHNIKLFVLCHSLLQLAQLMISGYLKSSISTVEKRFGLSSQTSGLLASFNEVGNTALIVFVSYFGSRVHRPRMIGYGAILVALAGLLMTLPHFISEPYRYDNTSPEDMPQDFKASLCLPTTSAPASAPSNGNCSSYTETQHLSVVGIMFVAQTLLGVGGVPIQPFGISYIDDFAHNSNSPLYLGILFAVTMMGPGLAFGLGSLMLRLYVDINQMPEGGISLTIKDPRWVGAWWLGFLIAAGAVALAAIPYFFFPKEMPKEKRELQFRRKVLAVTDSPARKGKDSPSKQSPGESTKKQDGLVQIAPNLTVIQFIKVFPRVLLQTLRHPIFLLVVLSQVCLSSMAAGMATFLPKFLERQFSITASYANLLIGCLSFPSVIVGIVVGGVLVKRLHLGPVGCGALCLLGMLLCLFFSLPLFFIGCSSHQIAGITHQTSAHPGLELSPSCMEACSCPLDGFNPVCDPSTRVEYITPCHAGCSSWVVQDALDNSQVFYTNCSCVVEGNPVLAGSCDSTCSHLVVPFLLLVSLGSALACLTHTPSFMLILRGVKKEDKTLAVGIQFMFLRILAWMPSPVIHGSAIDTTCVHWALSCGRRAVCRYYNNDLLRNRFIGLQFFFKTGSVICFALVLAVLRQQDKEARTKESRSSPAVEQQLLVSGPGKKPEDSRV
Protocol: OATP-expressing A431 cells were seeded (7 × 10^4 cells in 200 µl final volume/well) onto 96-well plates and cultured for 16–24 h at 37 °C, 5% CO2. After reaching confluence, the supernatant was removed and the cells were washed three-times with 200 µl of phosphate-buffered saline (PBS). The cells were preincubated in the presence of the compounds for 5 min at 37 °C. The amount of solvent was kept below 0.5% throughout the study to avoid interference with the fluorescence of the dyes. The reaction was started with the addition of 50 µl Cascade Blue fluorescent dye (10 µM final concentration in a final volume of 100 µl) and the plate was incubated at 37 °C for 30 min (Patik et al. [2018]). The reaction was stopped by the addition of 200 µl ice-cold PBS. The supernatant was rapidly removed, and the cells were washed three-times with 200 µl ice-cold PBS. Finally, 200 µl PBS was added to the cells and fluorescence was measured at room temperature using an EnSpire fluorescent plate reader (Perkin Elmer) at wavelengths 401ex/419em nm.

[7] = resistance ratio = IC50 Mes-Sa-B1 / IC50 parental Mes-Sa, triple co-culture screen
[8] = resistance ratio = IC50 A431B1 / IC50 parental A431, triple co-culture screen
[9] = selectivity ratio = IC50 parental Mes-Sa / IC50 Mes-Sa/Dx5, triple co-culture screen
[10] = selectivity ratio = IC50 parental Mes-Sa / IC50 Mes-Sa-B1, triple co-culture screen

Compound: CO[C@H]1C(=O)[C@]2(C)[C@@H](OC)C[C@H]3OC[C@@]3(OC(C)=O)[C@H]2[C@H](OC(=O)c2ccccc2)[C@]2(O)C[C@H](OC(=O)[C@H](O)[C@@H](NC(=O)OC(C)(C)C)c3ccccc3)C(C)=C1C2(C)C [NSC-761432, Cabazitaxel]
- RR (Mes-Sa-B1) [1, 7]: 63.00
- RR (Dx5) (Mes-Sa/Dx5 cells; triple co-culture screen): > 107.00
- RR (A431B1) [2, 8]: 6.00

Compound: CC(C)C[C@H](NC(=O)[C@H](Cc1ccccc1)NC(=O)c1cnccn1)B(O)O [bortezomib]
- RR (Mes-Sa-B1) [1, 7]: 4.3
- RR (Dx5) (Mes-Sa/Dx5 cells; triple co-culture screen): 17
- RR (A431B1) [2, 8]: 2.7

Compound: Nc1nc(Cl)nc2c1ncn2[C@@H]1O[C@H](CO)[C@@H](O)[C@@H]1F [NSC-606869, Clofarabine]
- SR (Mes-Sa-B1) [1]: 0.91
- SR (Mes-Sa/DX5) (Mes-Sa/Dx5 cells; [9]): 3.44
- Effect of ABCG2 expression on toxicity (A431-G2 vs parental A431) [3]: conferred resistance

Compound: C1CN1c1nc(N2CC2)nc(N2CC2)n1 [NSC-9706, Triethylenemelamine]
- SR (Mes-Sa/DX5) (Mes-Sa/Dx5 cells): 26.62

Compound: C/C=C1\NC(=O)[C@H]2CSSCC/C=C/[C@H](CC(=O)N[C@H](C(C)C)C(=O)N2)OC(=O)[C@H](C(C)C)NC1=O [NSC-754143, Romidepsin]
- RR (Mes-Sa-B1) [1]: 331.70
- RR (Dx5) (Mes-Sa/Dx5 cells; triple co-culture screen): > 234.15
- RR (A431B1) [2]: > 97

Compound: Nc1nc2nc[nH]c2c(=S)[nH]1 [NSC-752, Thioguanine]
- SR (Mes-Sa-B1) [1, 10]: 0.41
- SR (Mes-Sa/DX5) (Mes-Sa/Dx5 cells; [9]): 6.93

Compound: CCCCCOC(=O)Nc1nc(=O)n([C@@H]2O[C@H](C)[C@@H](O)[C@H]2O)cc1F [NSC-712807, Capecitabine]
- IC50 (A431 cells; A-431, read-out: IC50 (µM) A431 eGFP, co-culture): 205 µM
- IC50 (A431 cells; A-431, read-out: IC50 (µM) A431 eGFP, monoculture): 391 µM
- SR, co-culture ([4]; IC50 A431 eGFP / IC50 A4312B1 mCh, co-culture): 4.62^**
- SR, monoculture ([4]; IC50 A431 eGFP / IC50 A4312B1 mCh, monoculture): 3.04^**
- SR (A431-2B1 vs parental A431), screening of DTP Oncology Set IV ([4]; primary screen, co-culture, Fig. 4 inset): 3.41
- IC50 at […] (OATP2B1 [5]): 44.5 µM
- IC50 at […] (OATP2B1 [5]; A431-2B1 mCherry cells (OATP2B1-expressing), monoculture): 129 µM
- IC50 (OATP2B1 [6]): 124 ± 6.42 µM

Compound: CC(=O)O[C@H]1C(=O)[C@@]2(C)[C@H]([C@H](OC(=O)c3ccccc3)[C@]3(O)C[C@H](OC(=O)[C@H](O)[C@@H](NC(=O)c4ccccc4)c4ccccc4)C(C)=C1C3(C)C)[C@]1(OC(C)=O)CO[C@@H]1C[C@@H]2O [NSC-125973, Taxol]
- RR (Mes-Sa-B1) [1, 7]: 593.3
- RR (Dx5) (Mes-Sa/Dx5 cells; triple co-culture screen): 497.67
- RR (A431B1) [2, 8]: 50.91
- Effect of OATP2B1 expression on toxicity (A431-2B1 vs A431 eGFP) ([4]; co-culture screen, result in words): not transported by OATP2B1

Compound: CCC1=C[C@@H]2CN(C1)Cc1c([nH]c3ccccc13)[C@@](C(=O)OC)(c1cc3c(cc1OC)N(C)[C@H]1[C@@](O)(C(=O)OC)[C@H](OC(C)=O)[C@]4(CC)C=CCN5CC[C@]31[C@@H]54)C2 [NSC-608210, Vinorelbine]
- RR (Mes-Sa-B1) [1, 7]: 725.00
- RR (Dx5) (Mes-Sa/Dx5 cells; triple co-culture screen): 861.00
- RR (A431B1) [2, 8]: 232.00

Compound: C[C@@H](Oc1cc(-c2cnn(C3CCNCC3)c2)cnc1N)c1c(Cl)ccc(F)c1Cl [crizotinib]
- RR (Mes-Sa-B1) [1, 7]: 9.9
- RR (Dx5) (Mes-Sa/Dx5 cells; triple co-culture screen): 21.3
- RR (A431B1) [2, 8]: 2.6

Compound: CS(=O)(=O)c1ccc(C(=O)Nc2ccc(Cl)c(-c3ccccn3)c2)c(Cl)c1 [NSC-755986, Vismodegib]
- SR (Mes-Sa/DX5) (Mes-Sa/Dx5 cells; [9]): > 3.31

Compound: CC[C@]1(O)C[C@@H]2CN(CCc3c([nH]c4ccccc34)[C@@](C(=O)OC)(c3cc4c(cc3OC)N(C)[C@H]3[C@@](O)(C(=O)OC)[C@H](OC(C)=O)[C@]5(CC)C=CCN6CC[C@]43[C@@H]65)C2)C1 [NSC-49842, Vinblastine]
- RR (Mes-Sa-B1) [1, 7]: 15.00
- RR (Dx5) (Mes-Sa/Dx5 cells; triple co-culture screen): 11.00
- RR (A431B1) [2, 8]: 244.4

Compound: Nc1ccn([C@@H]2O[C@H](CO)[C@@H](O)[C@@H]2O)c(=O)n1 [NSC-63878, Cytarabine]
- SR (A431-2B1 vs parental A431), screening of DTP Oncology Set IV [4]: > 18.12

Compound: Cc1cn(-c2cc(NC(=O)c3ccc(C)c(Nc4nccc(-c5cccnc5)n4)c3)cc(C(F)(F)F)c2)cn1 [NSC-747599, Nilotinib]
- SR (Mes-Sa-B1) [1, 10]: 1.23
- SR (Mes-Sa/DX5) (Mes-Sa/Dx5 cells; [9]): 4.68
